Data on 4 molecules can be found in patent publication US20250000069A1, “ANTHELMINTIC LABORATORY ANIMAL MODEL FOR HEARTWORM” (priority 2019, published 2025).

For data set [1] the following is noted: rat, in vivo.
In data set [2] the test system is D. immitis (UGA susceptible strain). The data set can be described thus: Dog (oral) heartworm model, compiled dose correlation data. The class given is in vivo.
The test system of data set [3] is D. immitis (Michigan susceptible strain). The experiment in a line: Rat (SQ) heartworm model, compiled dose correlation data. The class given is in vivo.
For data set [4], the system named is D. immitis (Michigan strain). The experiment in a line: Efficacy of compounds in the D. immitis immunosuppressed rat model (third study, subcutaneous dosing). The class given is in vivo.
The test system of another data set is D. immitis JYD-34 strain. The experiment in a line: Oral moxidectin in immunosuppressed rats infected with JYD-34 strain. The class given is in vivo, rat. The settings on record: for Mean worm counts: geometric mean.
The subject of data set [5] is D. immitis ZoeMI-01 (ZM1) strain. The experiment in a line: Oral moxidectin in immunosuppressed rats infected with ZoeMI-01 strain. It counts as in vivo, rat. The settings on record: for Mean worm counts: geometric mean.
Where [6] appears, read: SQ 1 μg/kg, dosed month 1 post-inoculation.
[7] abbreviates: rat, SC 1.00 mg/kg day 30 post-inoculation, necropsy day 112-114.
[8] abbreviates: rat, SC 5.00 mg/kg day 30 post-inoculation, necropsy day 112-114.
Setting [9] is: oral 3 μg/kg day 28, necropsy day 120.
Where [10] appears, read: oral 3 μg/kg days 28, 56, 84, necropsy day 120.
Setting [11] is: oral 12 μg/kg day 28, necropsy day 120.
The mark [12] stands for this setting: oral 24 μg/kg day 28, necropsy day 120.
Where [13] appears, read: n = 4, oral 3 μg/kg day 28, necropsy day 120.
[14] abbreviates: n = 4, oral 3 μg/kg days 28, 56, 84, necropsy day 120.
[15] abbreviates: n = 4, oral 24 μg/kg day 28, necropsy day 120.
[16] abbreviates: rat, SC 0.001 mg/kg day 30 post-inoculation, necropsy day 112-114.
The mark [17] stands for this setting: rat, SC 0.003 mg/kg day 30 post-inoculation, necropsy day 112-114.

Each structure is given as a SMILES string. Where “and” joins values, the source holds several entries; their conditions need not be identical. Equal entries are not always repeated.

Turning to `CC(=O)OCC(=O)[C@@]1(O)CC[C@H]2[C@@H]3CCC4=CC(=O)CC[C@]4(C)[C@H]3[C@@H](O)C[C@@]21C` [hydrocortisone, hydrocortisone acetate], the mortality entry in data set [1] is given as “increased incidence of mortality”.
`CC(C)C[C@H]1C(=O)O[C@H](Cc2ccc(N3CCOCC3)cc2)C(=O)N(C)[C@@H](CC(C)C)C(=O)O[C@H](C)C(=O)N(C)[C@@H](CC(C)C)C(=O)O[C@H](Cc2ccc(N3CCOCC3)cc2)C(=O)N(C)[C@@H](CC(C)C)C(=O)O[C@H](C)C(=O)N1C` [EMO, emodepside]: the “% Efficacy” value in data set [2] (oral 1 μg/kg, dosed month 1 post-inoculation) turned out to be 58%; in data set [2] (oral 3 μg/kg, dosed month 1 post-inoculation), 88%; in data set [2] (oral 5 μg/kg, dosed month 1 post-inoculation) it was 97%; in data set [2] (oral 10 μg/kg, dosed month 1 post-inoculation) it was 97%; in data set [3] (setting [6]), 76%; in data set [3] (SQ 5 μg/kg, dosed month 1 post-inoculation), 100%. Besides, the “% Efficacy” value in data set [4] (setting [7]) came out at 75.6%; in data set [4] (setting [8]) it was 100%. Also, the “Mean worm count (range)” value in data set [4] (arithmetic mean, rat, SC 1.00 mg/kg day 30 post-inoculation, necropsy day 112-114) is on record as 1.8; in data set [4] (arithmetic mean, rat, SC 5.00 mg/kg day 30 post-inoculation, necropsy day 112-114), 0. The prevention of heartworm in data set [4] (rat model, dose not stated) came out at 100%. Moreover, the “# rats with infection (n = 6)” value in data set [4] (setting [7]) is recorded as 3; in data set [4] (setting [8]), 0. The “# of Ag+” value in data set [4] (rat, in vivo, sc, 1 mg/kg) stood at 1; in data set [4] (rat, in vivo, sc, 5 mg/kg), 1.
As to `CO/N=C1\C[C@]2(C[C@@H]3C[C@@H](C/C=C(\C)C[C@@H](C)/C=C/C=C4\CO[C@@H]5[C@H](O)C(C)=C[C@@H](C(=O)O3)[C@]45O)O2)O[C@H](/C(C)=C/C(C)C)[C@H]1C` [MOX, moxidectin], the “% Efficacy” value in data set [2] (oral 0.5 μg/kg, dosed month 2 post-inoculation) was found to be 100%; in data set [2] (oral 0.625 μg/kg, dosed month 2 post-inoculation) it was 100%; in data set [2] (oral 1.25 μg/kg, dosed months 1, 2 post-inoculation) it was 100%; with D. immitis JYD-34 strain (setting [9]), 0%; in the data set with D. immitis JYD-34 strain (setting [10]) it was 38%; in the data set on D. immitis JYD-34 strain (setting [11]) it was 28%. Moreover, the “% Efficacy” value came to 87% in the data set with D. immitis JYD-34 strain (setting [12]); 92% in data set [3] (setting [6]); 100% in data set [3] (SQ 3 μg/kg, dosed month 1 post-inoculation); 81% in data set [5] (setting [9]); 100% in data set [5] (setting [10]); 100% in data set [5] (setting [11]). Moreover, the results for the “% Efficacy” value in data set [5] (setting [12]), in data set [4] (setting [16]) and in data set [4] (setting [17]) were 100%, 91.7% and 100%, respectively. Moreover, the Mean worm counts in the data set on D. immitis JYD-34 strain (setting [9]) is 6.0; with D. immitis JYD-34 strain (setting [10]), 2.4; with D. immitis JYD-34 strain (setting [11]), 2.8; with D. immitis JYD-34 strain (setting [12]), 0.5; in data set [5] (setting [9]), 1.1; in data set [5] (setting [10]) it was 0. Besides, the Mean worm counts in data set [5] (setting [11]) and in data set [5] (setting [12]) was 0 each time. In addition, the “Number of rats infected” value with D. immitis JYD-34 strain (n = 4, one rat died pre-necropsy, oral 12 μg/kg day 28, necropsy day 120) is “*3”; with D. immitis JYD-34 strain (setting [13]), 4; with D. immitis JYD-34 strain (setting [14]), 4; in the data set with D. immitis JYD-34 strain (setting [15]) it was 1; in data set [5] (setting [13]), 3; in data set [5] (setting [14]), 0. Further, the “Number of rats infected” value in data set [5] (n = 4, oral 12 μg/kg day 28, necropsy day 120) was found to be 0; in data set [5] (setting [15]), 0. The “Mean worm count (range)” value worked out at 0.67 in data set [4] (arithmetic mean, rat, SC 0.001 mg/kg day 30 post-inoculation, necropsy day 112-114) and 0 in data set [4] (arithmetic mean, rat, SC 0.003 mg/kg day 30 post-inoculation, necropsy day 112-114). The same molecule came in with an efficacy in data set [4] (rat model, at their use-dose) of 100%. Moreover, the “# rats with infection (n = 6)” value in data set [4] (setting [16]) turned out to be 4; in data set [4] (setting [17]), 0. The “# of Ag+” value in data set [4] (rat, in vivo, sc, 0.001 mg/kg) is reported as 1; in data set [4] (rat, in vivo, sc, 0.003 mg/kg), 0.
With `CC[C@H](C)[C@H]1O[C@]2(CC[C@@H]1C)C[C@@H]1C[C@@H](C/C=C(\C)[C@@H](O[C@H]3C[C@H](OC)[C@@H](O[C@H]4C[C@H](OC)[C@@H](O)[C@H](C)O4)[C@H](C)O3)[C@@H](C)/C=C/C=C3\CO[C@@H]4[C@H](O)C(C)=C[C@@H](C(=O)O1)[C@]34O)O2` [IVM, ivermectin], the “% Efficacy” value was 53% and 83-97% and 98% and 100% and 64% in data set [2] (in vivo, po); 89% and 97-100% and 100% in data set [3] (in vivo); 89.3% in data set [4] (rat, in vivo, sc, 0.001 mg/kg); 96.5% in data set [4] (rat, in vivo, sc, 0.003 mg/kg). Also, in data set [4] (rat, in vivo), the efficacy was 96.5%. Besides, the “# of Ag+” value in data set [4] (rat, in vivo, sc, 0.001 mg/kg) turned out to be 2; in data set [4] (rat, in vivo, sc, 0.003 mg/kg), 2. Moreover, the “# rats with infection (n = 6)” value in data set [4] (rat, in vivo, sc, 0.001 mg/kg) is recorded as 5; in data set [4] (rat, in vivo, sc, 0.003 mg/kg), 1. Also, the “Mean worm count (range)” value in data set [4] (rat, in vivo, sc, 0.001 mg/kg) is 0.8; in data set [4] (rat, in vivo, sc, 0.003 mg/kg), 0.3.
